Tests used:
5′-TGGAACA-3′ = experiment: DNase I footprint titration; conditions: formal match sequence
5′-TGTAACA-3′ = experiment: DNase I footprint titration
5′-TGTGAACA-3′ = experiment: DNase I footprint titrations; conditions: single base pair mismatch sequence

Compound | equilibrium association constant Ka (5′-TGGAACA-3′) | reduction of affinity of the 5′-TGTAACA-3′ complex relative to ImPyPyPyPy-γ-ImPyPyPyPy-β-Dp (5′-TGTAACA-3′) [fold] | free energy difference (5′-TGTAACA-3′; 5′-TGTAACA-3′ complexes) | equilibrium association constant Ka (5′-TGTAACA-3′; pH 7.0, 22° C.) [M⁻¹] | Ka (5′-TGTGAACA-3′) [M⁻¹]
CN(C)CCCNC(=O)CCNC(=O)c1cc(NC(=O)c2cc(NC(=O)c3cc(NC(=O)c4cc(NC(=O)c5nc(NC(=O)CCCNC(=O)c6cc(NC(=O)c7cc(NC(=O)c8cc(NC(=O)c9nc(NC(=O)c%10nccn%10C)cn9C)cn8C)cn7C)cn6C)cn5C)cn4C)cn3C)cn2C)cn1C [ImImPyPyPy-γ-ImPyPyPyPy-β-Dp] | 3.6×10^9 m^−1 | > 300 | at least 4 kcal/mol | < 1e+07 | 
CN(C)CCCNC(=O)CCNC(=O)c1cc(NC(=O)c2cc(NC(=O)CCNC(=O)c3cc(NC(=O)c4cc(NC(=O)c5nc(NC(=O)CCCNC(=O)c6cc(NC(=O)c7cc(NC(=O)c8cc(NC(=O)CCNC(=O)c9cc(NC(=O)c%10nccn%10C)cn9C)cn8C)cn7C)cn6C)cn5C)cn4C)cn3C)cn2C)cn1C |  |  |  |  | < 1e+09
